Measured values as given in patent US9029337B2, “Modulation of factor 7 expression” (Isis Pharmaceuticals, Inc., priority 2007, dated 2015).
e = 2'-O-(2-methoxyethyl) (MOE); d = 2'-deoxy (DNA)

Legend:
Type in all cases: in vivo, mouse
[1] = system: intrinsic pathway of blood coagulation; test: Activated Partial Thromboplastin Time (aPTT) in platelet poor plasma of treated BALB/c mice
Experimental: (§1) Prothrombin Time (PT) and Activated Partial Thromboplastin Time (aPTT) were measured using platelet poor plasma (PPP) from mice treated with ISIS 403102. PT and aPTT values provided in Table 20 are reported as International Normalized Ratio (INR) values. INR values for PT and aPTT were determined by dividing the PT or aPTT value for the experimental group by the PT or aPTT for the PBS treated group. This ratio was then raised to the power of the International Sensitivity Index (ISI) of the tissue factor used.
as §1, with “in Table 22 are reported” for “in Table 20 are reported”, “experimental group (i.e. 50 mg/kg treatment with ISIS 403102) by the” for “experimental group by the”
as §1, with “in Table 24 are reported” for “in Table 20 are reported”, “experimental group (i.e. 50 mg/kg treatment with ISIS 403102) by the” for “experimental group by the”

murine Factor 7 mRNA [2] = test: Single dose pharmacokinetic assay: liver Factor 7 mRNA in BALB/c mice; settings: single dose 50 mg/kg; for % Inhibition: liver Factor 7 mRNA, BALB/c mice
Experimental: The half-life and duration of action of ISIS 403102 in mice was evaluated. A group of 27 BALB/c mice was injected with 50 mg/kg of ISIS 403102. Three mice from the group were sacrificed at days 1, 2, 3, 4, 6, 8, 12, 24, and 56 after the single dose of ISIS 403102 was administered. A control group of 3 mice was injected with a single dose of PBS, and mice in this group were sacrificed on day 1. Mice in all groups were sacrificed by cervical dislocation following anesthesia with 150 mg/kg ketamine mixed with 10 mg/kg xylazine administered by intraperitoneal injection. Liver was harvested for RNA analysis and plasma was collected for clotting analysis (PT and aPTT).
RNA was extracted from liver tissue for real-time RT-PCR analysis of Factor 7. Results are presented as percent inhibition of Factor 7, relative to PBS control. […] Results are presented as percent inhibition of Factor 7, relative to control.

murine Factor 7 mRNA [3] = test: Liver Factor 7 mRNA in the FeCl3 induced venous thrombosis model; settings: for % inhibition of Factor 7 mRNA: liver; for % inhibition of Factor 7 mRNA, relative to PBS control: BALB/c mice liver, two days after last dose
Experimental: Three groups of BALB/c mice were injected with 25 mg/kg, 37.5 mg/kg, or 50 mg/kg of ISIS 403102, administered subcutaneously twice a week for 3 weeks. Two control groups of BALB/c mice were treated with PBS, administered subcutaneously twice a week for 3 weeks. Thrombus formation was induced with FeCl3 in half of the mice while the rest of the mice were assayed for tail bleeding. Two days after receiving the last dose of ISIS 403102 or PBS, mice were anesthetized with 150 mg/kg ketamine mixed with 10 mg/kg xylazine administered by intraperitoneal injection. Thrombus formation was induced with FeCl3 in all groups of the VT mice except the first control group.
In mice undergoing FeCl3 treatment, thrombus formation was induced by applying a piece of filter paper (2×4 mm) pre-saturated with 10% FeCl3 solution directly on the vena cava. After 3 minutes of exposure, the filter paper was removed. Thirty minutes after the filter paper application, a fixed length of the vein containing the thrombus was dissected out for platelet analysis. Liver was collected for RNA analysis.
RNA was extracted from liver tissue for real-time RT-PCR analysis of Factor 7. Results are presented as percent inhibition of Factor 7, relative to PBS control.
ISIS 403102 and warfarin (Coumadin®) were evaluated in BALB/c mice. Four groups of BALB/c mice were treated with 5 mg/kg, 10 mg/kg, 20 mg/kg, or 40 mg/kg of ISIS 403102, administered subcutaneously twice a week for 3 weeks. Two days after receiving the last dose of ISIS 403102, mice were anesthetized with 150 mg/kg ketamine mixed with 10 mg/kg xylazine administered by intraperitoneal injection. A fifth group of BALB/c mice was treated with 3 mg/kg of warfarin, administered intraperioneally daily for 6 days. Four hours after the last dose of warfarin, mice were sacrificed. A control group of BALB/c mice were treated with PBS, administered subcutaneously twice a week for 3 weeks. Two days after the last dose of PBS, mice were anesthetized with 150 mg/kg ketamine mixed with 10 mg/kg xylazine administered by intraperitoneal injection. Thrombus formation was induced with FeCl3 in groups of mice except the first control group.

CCATAGAACAGCTTCACAGG (sugars from the 5' end e5 d10 e5, backbone and methylation of C not given here) [ISIS 403102]
aPTT INR ([1]; BALB/c mice, 5 mg/kg, relative to PBS treated group): 1.05
aPTT INR ([1]; BALB/c mice, 10 mg/kg, relative to PBS treated group): 1.04
aPTT INR ([1]; BALB/c mice, 25 mg/kg, relative to PBS treated group): 1.09
aPTT INR ([1]; BALB/c mice, 50 mg/kg, 1 dose, 1 day after last dose, relative to PBS group): 1.08 INR
aPTT INR ([1]; BALB/c mice, 50 mg/kg, 1 dose, 3 days after last dose, relative to PBS group): 1.10 INR
aPTT INR ([1]; BALB/c mice, 50 mg/kg, 2 doses, 3 days after last dose, relative to PBS group): 1.29 INR
aPTT INR ([1]; BALB/c mice, 50 mg/kg, 4 doses, 3 days after last dose, relative to PBS group): 1.53 INR
aPTT INR ([1]; BALB/c mice, 50 mg/kg, 6 doses, 2 days after last dose, relative to PBS group): 1.62 INR
aPTT INR ([1]; BALB/c mice, 50 mg/kg, 6 doses, 7 days after last dose, relative to PBS group): 1.67 INR
aPTT INR ([1]; BALB/c mice, 50 mg/kg, 6 doses, 14 days after last dose, relative to PBS group): 1.25 INR
aPTT INR ([1]; BALB/c mice, 50 mg/kg, 6 doses, 28 days after last dose, relative to PBS group): 0.90 INR
aPTT INR ([1]; BALB/c mice, 50 mg/kg, 6 doses, 42 days after last dose, relative to PBS group): 1.00 INR
aPTT INR ([1]; BALB/c mice, 50 mg/kg, 6 doses, 56 days after last dose, relative to PBS group): 0.98 INR
aPTT INR ([1]; BALB/c mice, 50 mg/kg, relative to PBS treated group): 1.16
aPTT INR ([1]; BALB/c mice, single dose 50 mg/kg, day 1): 1.00
aPTT INR ([1]; BALB/c mice, single dose 50 mg/kg, day 2): 1.05
aPTT INR ([1]; BALB/c mice, single dose 50 mg/kg, day 3): 1.24
aPTT INR ([1]; BALB/c mice, single dose 50 mg/kg, day 4): 1.15
aPTT INR ([1]; BALB/c mice, single dose 50 mg/kg, day 6): 1.23
aPTT INR ([1]; BALB/c mice, single dose 50 mg/kg, day 8): 1.18
aPTT INR ([1]; BALB/c mice, single dose 50 mg/kg, day 12): 1.18
aPTT INR ([1]; BALB/c mice, single dose 50 mg/kg, day 24): 1.02
aPTT INR ([1]; BALB/c mice, single dose 50 mg/kg, day 56): 0.97
aPTT compared to the control ([1]; Example 11, 5-50 mg/kg twice a week for 3 weeks): slightly prolonged
aPTT ([1]; Example 13, 6 doses, from day 7 to day 56): decreased
aPTT INR ([1]; single dose 50 mg/kg, day 4): 1.24
aPTT INR ([1]; single dose 50 mg/kg, day 56): 0.97
aPTT INR ([1]; single dose 50 mg/kg, starting value before the rise to day 4): 1.00
% Inhibition (murine Factor 7 mRNA [2]; day 1, relative to PBS control): 61%
% Inhibition (murine Factor 7 mRNA [2]; day 2, relative to PBS control): 87%
% Inhibition (murine Factor 7 mRNA [2]; day 3, relative to PBS control): 92%
% Inhibition (murine Factor 7 mRNA [2]; day 4, relative to PBS control): 92%
% Inhibition (murine Factor 7 mRNA [2]; day 6, relative to PBS control): 86%
% Inhibition (murine Factor 7 mRNA [2]; day 8, relative to PBS control): 80%
% Inhibition (murine Factor 7 mRNA [2]; day 12, relative to PBS control): 72%
% Inhibition (murine Factor 7 mRNA [2]; day 24, relative to PBS control): 11%
% Inhibition (murine Factor 7 mRNA [2]; day 56, relative to PBS control): 0%
duration of action (murine Factor 7 mRNA [2]): at least 24 days
peak effect (murine Factor 7 mRNA [2]): ~4 days
inhibition of Factor 7 mRNA (murine Factor 7 mRNA [2]; day 4): 92%
inhibition of Factor 7 mRNA (murine Factor 7 mRNA [2]; day 24): 11%
Factor 7 mRNA levels (murine Factor 7 mRNA [2]; day 56): equal to that of the PBS control
% inhibition of Factor 7 mRNA (murine Factor 7 mRNA [3]; Example 14, 25 mg/kg subcutaneously twice a week for 3 weeks): 24%
% inhibition of Factor 7 mRNA (murine Factor 7 mRNA [3]; Example 14, 37.5 mg/kg subcutaneously twice a week for 3 weeks): 74%
% inhibition of Factor 7 mRNA (murine Factor 7 mRNA [3]; Example 14, 50 mg/kg subcutaneously twice a week for 3 weeks): 69%
reduction of Factor 7 mRNA in comparison to the PBS control (murine Factor 7 mRNA [3]; Example 14, 25, 37.5, 50 mg/kg twice a week for 3 weeks): significant dose-dependent reduction of Factor 7 mRNA
reduction of Factor 7 mRNA in comparison to the PBS control (murine Factor 7 mRNA [3]; Example 15, 5, 10, 20, 40 mg/kg subcutaneously twice a week for 3 weeks): significant dose-dependent reduction of Factor 7 mRNA
% inhibition of Factor 7 mRNA, relative to PBS control (murine Factor 7 mRNA [3]; Example 15, 5 mg/kg s.c. twice a week for 3 weeks): 59%
% inhibition of Factor 7 mRNA, relative to PBS control (murine Factor 7 mRNA [3]; Example 15, 10 mg/kg s.c. twice a week for 3 weeks): 84%
% inhibition of Factor 7 mRNA, relative to PBS control (murine Factor 7 mRNA [3]; Example 15, 20 mg/kg s.c. twice a week for 3 weeks): 95%
% inhibition of Factor 7 mRNA, relative to PBS control (murine Factor 7 mRNA [3]; Example 15, 40 mg/kg s.c. twice a week for 3 weeks): 99%
